Experimental findings from patent US8268795B2 (priority 2005, dated 2012) are described below.

Where a name gives a salt, the structure may show the parent alone. Read-outs that look alike come from different tables or passages of the source.

Common to all, as to format: cell-based, rabbit
Experiment [1] concerns the target T1, VDCC currents in cerebral artery myocytes (Oryctolagus cuniculus, UniProt Q02343).
T1 construct: Vascular smooth muscle cells were enzymatically isolated from cerebral arteries as previously described; endogenous in cells; host or cells: freshly isolated cerebral artery myocytes from control and SAH (5 days post-surgery) New Zealand white rabbits

Experiment [2] concerns VDCC currents in cerebral artery myocytes.
Experiment [3] concerns small diameter cerebral arteries from control and SAH rabbits.
Experiment [4] has as its target T2, VDCC currents in cerebral artery myocytes (Oryctolagus cuniculus, UniProt P15381).
T2 construct: Vascular smooth muscle cells were enzymatically isolated from cerebral arteries as previously described; endogenous in cells; host or cells: freshly isolated cerebral artery myocytes from control and SAH (5 days post-surgery) New Zealand white rabbits

Experiment [5] concerns small diameter cerebral arteries constricted by 60 mmol/L K+. As to the kind of experiment: tissue or blood.

T2 sequence (P15381 1-2166 isoform P15381-4): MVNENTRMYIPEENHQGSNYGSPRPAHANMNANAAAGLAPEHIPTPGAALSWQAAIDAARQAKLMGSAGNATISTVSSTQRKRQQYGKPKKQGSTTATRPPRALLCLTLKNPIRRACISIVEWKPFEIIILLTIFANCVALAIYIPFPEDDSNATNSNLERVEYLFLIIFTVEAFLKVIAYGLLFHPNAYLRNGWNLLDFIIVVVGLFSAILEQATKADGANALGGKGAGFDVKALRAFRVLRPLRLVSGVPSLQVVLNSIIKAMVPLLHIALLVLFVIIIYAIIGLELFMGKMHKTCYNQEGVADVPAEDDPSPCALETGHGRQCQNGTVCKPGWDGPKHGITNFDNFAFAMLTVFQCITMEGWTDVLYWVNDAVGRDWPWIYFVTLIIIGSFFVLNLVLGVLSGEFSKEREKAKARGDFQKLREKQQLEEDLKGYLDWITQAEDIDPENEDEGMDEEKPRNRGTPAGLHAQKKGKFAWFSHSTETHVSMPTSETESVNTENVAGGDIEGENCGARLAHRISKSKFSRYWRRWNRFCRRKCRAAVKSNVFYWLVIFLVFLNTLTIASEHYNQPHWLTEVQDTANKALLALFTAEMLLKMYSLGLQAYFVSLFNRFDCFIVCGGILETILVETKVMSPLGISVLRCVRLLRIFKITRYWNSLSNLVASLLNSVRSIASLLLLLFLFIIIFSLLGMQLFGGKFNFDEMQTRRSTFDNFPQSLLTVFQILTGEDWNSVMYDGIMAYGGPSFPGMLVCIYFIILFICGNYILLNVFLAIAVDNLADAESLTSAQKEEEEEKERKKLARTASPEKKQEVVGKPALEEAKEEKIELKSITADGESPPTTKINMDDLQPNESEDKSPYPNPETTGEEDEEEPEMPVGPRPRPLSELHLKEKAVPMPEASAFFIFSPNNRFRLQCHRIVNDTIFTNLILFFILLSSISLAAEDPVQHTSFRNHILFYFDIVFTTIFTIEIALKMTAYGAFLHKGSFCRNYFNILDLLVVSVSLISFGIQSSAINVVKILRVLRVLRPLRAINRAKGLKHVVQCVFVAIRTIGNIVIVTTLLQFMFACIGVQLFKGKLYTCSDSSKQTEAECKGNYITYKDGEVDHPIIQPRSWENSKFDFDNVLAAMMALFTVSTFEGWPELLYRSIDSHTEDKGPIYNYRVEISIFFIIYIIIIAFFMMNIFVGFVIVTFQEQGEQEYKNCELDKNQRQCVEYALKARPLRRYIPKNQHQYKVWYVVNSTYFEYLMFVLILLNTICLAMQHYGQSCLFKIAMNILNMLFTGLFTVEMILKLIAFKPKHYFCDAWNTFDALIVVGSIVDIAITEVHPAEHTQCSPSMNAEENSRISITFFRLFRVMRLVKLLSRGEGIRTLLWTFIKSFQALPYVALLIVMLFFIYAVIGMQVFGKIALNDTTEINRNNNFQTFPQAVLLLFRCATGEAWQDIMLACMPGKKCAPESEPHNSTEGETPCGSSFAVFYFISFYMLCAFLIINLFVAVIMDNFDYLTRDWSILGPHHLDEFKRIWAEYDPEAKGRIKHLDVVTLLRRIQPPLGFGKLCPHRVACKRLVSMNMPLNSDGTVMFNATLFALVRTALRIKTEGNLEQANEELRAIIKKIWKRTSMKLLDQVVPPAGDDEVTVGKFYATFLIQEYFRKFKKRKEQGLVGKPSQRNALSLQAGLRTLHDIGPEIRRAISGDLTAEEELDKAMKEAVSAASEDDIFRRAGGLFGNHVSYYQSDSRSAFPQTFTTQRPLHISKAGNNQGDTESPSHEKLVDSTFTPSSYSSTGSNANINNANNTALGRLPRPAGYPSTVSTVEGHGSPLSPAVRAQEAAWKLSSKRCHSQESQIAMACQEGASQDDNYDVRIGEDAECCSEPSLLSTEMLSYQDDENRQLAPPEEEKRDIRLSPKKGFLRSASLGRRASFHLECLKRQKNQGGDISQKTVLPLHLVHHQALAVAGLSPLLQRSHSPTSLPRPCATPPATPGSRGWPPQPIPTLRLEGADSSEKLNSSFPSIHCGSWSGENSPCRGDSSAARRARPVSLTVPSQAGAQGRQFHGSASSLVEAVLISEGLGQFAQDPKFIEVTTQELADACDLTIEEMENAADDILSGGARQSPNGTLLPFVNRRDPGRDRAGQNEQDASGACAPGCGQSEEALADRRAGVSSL
T1 sequence (Q02343 whole entry): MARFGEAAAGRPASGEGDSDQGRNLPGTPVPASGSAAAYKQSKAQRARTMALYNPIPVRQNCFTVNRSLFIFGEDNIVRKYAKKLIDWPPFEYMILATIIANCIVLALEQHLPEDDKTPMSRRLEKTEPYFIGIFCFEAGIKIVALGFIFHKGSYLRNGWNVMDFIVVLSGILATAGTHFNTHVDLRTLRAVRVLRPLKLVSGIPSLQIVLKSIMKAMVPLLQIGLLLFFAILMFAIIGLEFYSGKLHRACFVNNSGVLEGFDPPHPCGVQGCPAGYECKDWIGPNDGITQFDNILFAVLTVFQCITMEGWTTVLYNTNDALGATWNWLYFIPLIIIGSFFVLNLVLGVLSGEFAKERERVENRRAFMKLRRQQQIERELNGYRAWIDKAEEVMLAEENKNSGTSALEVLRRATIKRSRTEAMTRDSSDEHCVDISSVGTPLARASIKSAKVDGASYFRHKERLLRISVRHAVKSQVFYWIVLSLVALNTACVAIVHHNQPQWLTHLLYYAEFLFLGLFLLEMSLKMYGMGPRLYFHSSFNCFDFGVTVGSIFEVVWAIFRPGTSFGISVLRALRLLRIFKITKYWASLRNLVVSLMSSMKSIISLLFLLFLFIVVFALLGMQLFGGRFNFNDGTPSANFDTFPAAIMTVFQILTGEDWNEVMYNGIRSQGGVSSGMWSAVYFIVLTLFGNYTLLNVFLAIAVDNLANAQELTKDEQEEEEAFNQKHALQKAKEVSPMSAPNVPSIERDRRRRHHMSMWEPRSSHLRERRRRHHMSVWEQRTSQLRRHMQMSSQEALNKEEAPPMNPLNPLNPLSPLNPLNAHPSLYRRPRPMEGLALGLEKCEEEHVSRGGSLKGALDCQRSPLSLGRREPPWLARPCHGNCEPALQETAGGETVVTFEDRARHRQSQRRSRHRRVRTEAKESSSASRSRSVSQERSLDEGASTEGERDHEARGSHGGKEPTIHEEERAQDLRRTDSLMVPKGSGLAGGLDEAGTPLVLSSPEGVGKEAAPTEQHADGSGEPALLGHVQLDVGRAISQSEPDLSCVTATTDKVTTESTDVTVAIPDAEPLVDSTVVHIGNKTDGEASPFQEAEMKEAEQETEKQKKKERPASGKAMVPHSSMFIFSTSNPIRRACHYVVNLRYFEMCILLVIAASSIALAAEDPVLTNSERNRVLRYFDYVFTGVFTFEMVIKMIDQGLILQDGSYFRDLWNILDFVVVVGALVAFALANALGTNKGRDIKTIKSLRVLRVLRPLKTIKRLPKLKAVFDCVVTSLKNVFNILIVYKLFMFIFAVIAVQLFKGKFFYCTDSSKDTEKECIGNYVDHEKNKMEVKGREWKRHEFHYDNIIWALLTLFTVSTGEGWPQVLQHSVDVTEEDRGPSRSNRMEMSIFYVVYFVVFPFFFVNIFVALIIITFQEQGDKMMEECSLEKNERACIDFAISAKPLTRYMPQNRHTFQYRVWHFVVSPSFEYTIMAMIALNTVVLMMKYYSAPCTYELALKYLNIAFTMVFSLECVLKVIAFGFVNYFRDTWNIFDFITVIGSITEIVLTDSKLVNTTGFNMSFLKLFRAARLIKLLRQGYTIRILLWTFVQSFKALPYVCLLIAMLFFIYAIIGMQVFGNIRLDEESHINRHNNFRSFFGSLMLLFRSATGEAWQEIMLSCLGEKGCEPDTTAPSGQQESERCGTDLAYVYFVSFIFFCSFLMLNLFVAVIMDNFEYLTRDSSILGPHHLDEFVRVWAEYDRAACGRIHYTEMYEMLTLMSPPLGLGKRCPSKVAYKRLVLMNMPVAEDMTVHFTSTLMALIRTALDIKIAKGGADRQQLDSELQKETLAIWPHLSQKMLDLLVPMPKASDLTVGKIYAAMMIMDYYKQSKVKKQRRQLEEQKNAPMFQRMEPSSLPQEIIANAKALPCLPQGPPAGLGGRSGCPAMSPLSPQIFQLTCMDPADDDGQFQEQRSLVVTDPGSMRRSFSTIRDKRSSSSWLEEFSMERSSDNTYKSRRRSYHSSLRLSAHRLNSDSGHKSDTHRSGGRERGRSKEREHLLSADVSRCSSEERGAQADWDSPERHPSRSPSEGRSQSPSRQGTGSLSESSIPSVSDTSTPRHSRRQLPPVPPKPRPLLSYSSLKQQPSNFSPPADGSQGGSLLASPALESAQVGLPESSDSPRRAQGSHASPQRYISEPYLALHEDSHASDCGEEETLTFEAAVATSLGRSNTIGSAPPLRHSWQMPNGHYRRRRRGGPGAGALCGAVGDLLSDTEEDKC

For the compound `[Cd]` [cadmium], in experiment [1] (SAH myocytes, cadmium 200 μmol/L, n=4, data not shown), the “VDCC currents resistant to nifedipine (10 μmol/L)” value is reported as “abolished”.
As for ω-Conotoxin GVIA, in experiment [2], the “peak inward currents at +20 mV” value is reported as “did not alter”.
Regarding “H-Gly-Val-Asp-Lys-Ala-Gly-Cys-Arg-Tyr-Met-Phe-Gly-Gly-Cys-Ser-Val-Asn-Asp-Asp-Cys-Cys-Pro-Arg-Leu-Gly-Cys-His-Ser-Leu-Phe-Ser-Tyr-Cys-Ala-Trp-Asp-Leu-Thr-Phe-Ser-Asp-OH (H-GVDKAGCRYMFGGCSVNDDCCPRLGCHSLFSYCAWDLTFSD-OH; cysteine pairing not given here) [SNX-482]”, in experiment [3] (arteries from SAH animals, pressurized to 100 mmHg), the “dilation of pressurized cerebral arteries” value is recorded as “approximately 30%”. Moreover, the “effect on pressurized arteries” value in experiment [3] (arteries from control animals, pressurized to 100 mmHg) is reported as “no significant effect”. For the same compound, the “effect on VDCC currents” value in experiment [4] (myocytes from control animals, SNX-482 200 nmol/L) is “no effect”. Besides, the “reduction of VDCC currents” value in experiment [1] (myocytes from SAH animals, SNX-482 200 nmol/L) is on record as “approximately 30%”. For the same compound, in experiment [5] (arteries constricted with 60 mmol/L K+, SNX-482 220 nmol/L alone), the “dilation of cerebral arteries in the absence of diltiazem” value was “can dilate”. Further, in experiment [5] (arteries cultured with oxyhemoglobin for 5 days, 60 mM K+, 1 mmol/L diltiazem, then SNX-482 220 nmol/L), the “residual constriction observed in the presence of diltiazem” value is reported as “effectively reversed”.
ω-Agatoxin IVA: the “peak inward currents at +20 mV” value in experiment [2] (SAH myocytes, 100 nmol/L) is “did not alter”.
As for `COc1ccc([C@@H]2Sc3ccccc3N(CCN(C)C)C(=O)[C@@H]2OC(C)=O)cc1` (relative stereo) [diltiazem, benzothiazepin-4(5H)-one, 3-(acetyloxy)-5-[2-(dimethylamino)ethyl]-2,3-dihydro-2-(4-methoxyphenyl)-,(+)-cis-,monohydrochloride], the “pressure-induced constriction at 100 mmHg” value in experiment [3] (arteries from control animals, diltiazem 50 μmol/L) is “abolished”. The “block of membrane currents” value in experiment [4] is recorded as “completely blocked”. Moreover, in experiment [2], the “current resistant to the L-type VDCC antagonist” value was “approximately 20%”. In experiment [5] (Oryctolagus cuniculus, 120 h), the IC50 was found to be 16.9 ± 6.9 µM. The EC50 amounted to 1.02 ± 0.07 µM in experiment [5] (Oryctolagus cuniculus, B164, 0 h, read-out: EC50 of diltiazem treatment of K+ induced constricted arteries, Day 0, −Oxy Hb); 0.95 ± 0.14 µM in experiment [5] (Oryctolagus cuniculus, B164, 24 h, read-out: EC50 of diltiazem treatment of K+ induced constricted arteries, Day 1, +Oxy Hb); 0.76 ± 0.07 µM in experiment [5] (Oryctolagus cuniculus, B164, 24 h, read-out: EC50 of diltiazem treatment of K+ induced constricted arteries, Day 1, −Oxy Hb); 1.07 ± 0.06 µM in experiment [5] (Oryctolagus cuniculus, B164, 72 h, read-out: EC50 of diltiazem treatment of K+ induced constricted arteries, Day 3, +Oxy Hb); 0.78 ± 0.12 µM in experiment [5] (Oryctolagus cuniculus, B164, 72 h, read-out: EC50 of diltiazem treatment of K+ induced constricted arteries, Day 3, −Oxy Hb); 16.9 ± 6.9 µM in experiment [5] (Oryctolagus cuniculus, B164, 120 h, read-out: EC50 of diltiazem treatment of K+ induced constricted arteries, Day 5, +Oxy Hb). In addition, the EC50 in experiment [5] (Oryctolagus cuniculus, B164, 120 h, read-out: EC50 of diltiazem treatment of K+ induced constricted arteries, Day 5, −Oxy Hb) was determined as 1.1 ± 0.1 µM. The “reduction of K+-induced constriction” value in experiment [5] ([…], diltiazem 1 mmol/L, 60 mmol/L K+) was 99.7±0.4%.
